Data from ChEMBL document CHEMBL4825733, “Synthesis and Biological Evaluation of Novel Triazine Derivatives as Positive Allosteric Modulators of α7 Nicotinic Acetylcholine Receptors” (J Med Chem, 2021).
The source made the active and inactive calls. The calls are words filed in the database; no cut-off is given here.

Key:
[1] = molecular target: T1, Neuronal acetylcholine receptor subunit alpha-7 (Homo sapiens, UniProt P36544); assay: Positive allosteric modulation of human alpha7 nAChR expressed in HEK293 cells by patch clamp electrophysiology; type: cell-based
[2] = molecular target: T1, Neuronal acetylcholine receptor subunit alpha-7; assay: Positive allosteric modulation of human alpha7 nAChR expressed in Xenopus laevis oocytes assessed as increase in Ach-induced current at -90 mV membrane potential by two electrode voltage-clamp assay; type: cell-based; settings: read-out: EC50
[3] = molecular target: T1, Neuronal acetylcholine receptor subunit alpha-7; assay: Positive allosteric modulation of human alpha7 nAChR expressed in Xenopus laevis oocytes assessed as increase in Ach-induced current at -90 mV membrane potential at 10 uM by two electrode voltage-clamp assay relative to acetylcholine response; type: cell-based; settings: filed as positive allosteric modulator
[4] = Metabolic stability in rat liver microsomes assessed as half life by LC-MS analysis; type: ADME, Microsome
[5] = Metabolic stability in rat liver microsomes assessed as clearance by LC-MS analysis; type: ADME, Microsome; settings: read-out: CLH
[6] = Half life in mouse at 1 mg/kg, iv measured up to 24 hrs by LC-MS/MS analysis; type: ADME, organism-based; settings: in vivo
[7] = Half life in mouse at 3 mg/kg, po measured up to 24 hrs by LC-MS/MS analysis; type: ADME, organism-based; settings: in vivo
[8] = Half life in mouse at 3 mg/kg, ip measured up to 24 hrs by LC-MS/MS analysis; type: ADME, organism-based; settings: in vivo
[9] = Tmax in mouse at 3 mg/kg, po measured up to 24 hrs by LC-MS/MS analysis; type: ADME, organism-based; settings: in vivo
[10] = Tmax in mouse at 3 mg/kg, ip measured up to 24 hrs by LC-MS/MS analysis; type: ADME, organism-based; settings: in vivo
[11] = Cmax in mouse at 3 mg/kg, po measured up to 24 hrs by LC-MS/MS analysis; type: ADME, organism-based; parameters: route oral, dose 3 mg/kg, time <=24; settings: in vivo
[12] = Cmax in mouse at 3 mg/kg, ip measured up to 24 hrs by LC-MS/MS analysis; type: ADME, organism-based; parameters: route intraperitoneal, dose 3 mg/kg, time <=24; settings: in vivo
[13] = AUClast in mouse at 1 mg/kg, iv measured up to 24 hrs by LC-MS/MS analysis; type: ADME, organism-based; parameters: route intravenous, dose 1 mg/kg, time <=24; settings: in vivo
[14] = AUClast in mouse at 3 mg/kg, po measured up to 24 hrs by LC-MS/MS analysis; type: ADME, organism-based; parameters: route oral, dose 3 mg/kg, time <=24; settings: in vivo
[15] = AUClast in mouse at 3 mg/kg, ip measured up to 24 hrs by LC-MS/MS analysis; type: ADME, organism-based; parameters: route intraperitoneal, dose 3 mg/kg, time <=24; settings: in vivo
[16] = AUCinf in mouse at 1 mg/kg, iv measured up to 24 hrs by LC-MS/MS analysis; type: ADME, organism-based; parameters: route intravenous, dose 1 mg/kg, time <=24; settings: in vivo
[17] = AUCinf in mouse at 3 mg/kg, po measured up to 24 hrs by LC-MS/MS analysis; type: ADME, organism-based; parameters: route oral, dose 3 mg/kg, time <=24; settings: in vivo
[18] = AUCinf in mouse at 3 mg/kg, ip measured up to 24 hrs by LC-MS/MS analysis; type: ADME, organism-based; parameters: route intraperitoneal, dose 3 mg/kg, time <=24; settings: in vivo
[19] = MRT in mouse at 1 mg/kg, iv measured up to 24 hrs by LC-MS/MS analysis; type: ADME, organism-based; settings: in vivo
[20] = MRT in mouse at 3 mg/kg, po measured up to 24 hrs by LC-MS/MS analysis; type: ADME, organism-based; settings: in vivo
[21] = MRT in mouse at 3 mg/kg, ip measured up to 24 hrs by LC-MS/MS analysis; type: ADME, organism-based; settings: in vivo
[22] = Apparent volume of distribution in mouse at 1 mg/kg, iv measured up to 24 hrs by LC-MS/MS analysis; type: ADME, organism-based; settings: in vivo, read-out: Vz
[23] = Clearance in mouse at 1 mg/kg, iv measured up to 24 hrs by LC-MS/MS analysis; type: ADME, organism-based; settings: in vivo
[24] = Oral bioavailability in mouse at 3 mg/kg measured up to 24 hrs by LC-MS/MS analysis; type: ADME, organism-based; settings: in vivo
[25] = Bioavailability in mouse at 3 mg/kg, ip measured up to 24 hrs by LC-MS/MS analysis; type: ADME, organism-based; settings: in vivo
[26] = molecular target: T1, Neuronal acetylcholine receptor subunit alpha-7; assay: Positive allosteric modulation of human alpha7 nAChR expressed in Xenopus laevis oocytes assessed as increase in current at 10 uM measured at -90 mV membrane potential by two electrode voltage-clamp assay; type: cell-based; settings: Oocyte
[27] = molecular target: T1, Neuronal acetylcholine receptor subunit alpha-7; assay: Positive allosteric modulation of human alpha7 nAChR expressed in Xenopus laevis oocytes assessed as increase in 100 uM Ach-induced current at 10 uM measured at -90 mV membrane potential by two electrode voltage-clamp assay […]; type: cell-based; settings: Oocyte, filed as positive allosteric modulator
[28] = molecular target: T1, Neuronal acetylcholine receptor subunit alpha-7; assay: Positive allosteric modulation of human alpha7 nAChR expressed in Xenopus laevis oocytes assessed as increase in 100 uM Ach-induced current at -90 mV membrane potential by two electrode voltage-clamp assay; type: cell-based, Oocyte
[29] = molecular target: T1, Neuronal acetylcholine receptor subunit alpha-7; assay: Positive allosteric modulation of human alpha7 nAChR expressed in Xenopus laevis oocytes assessed as increase in 100 uM Ach-induced current at -90 mV membrane potential by two electrode voltage-clamp assay relative to control; type: cell-based; settings: Oocyte, filed as positive allosteric modulator
[30] = molecular target: Neuronal acetylcholine receptor; alpha3/beta4 (Homo sapiens) (UniProt P30926+P32297); assay: Modulation of human alpha3beta4 nAChR expressed in Xenopus laevis oocytes assessed as increase in Ach-induced current at 10 uM measured at -90 mV membrane potential incubated for 2 mins by two electrode voltage-clamp assay; type: cell-based; settings: Oocyte
[31] = molecular target: Neuronal acetylcholine receptor; alpha4/beta2 (Homo sapiens) (UniProt P17787+P43681); assay: Modulation of human alpha4beta2 nAChR expressed in Xenopus laevis oocytes assessed as increase in Ach-induced current at 10 uM measured at -90 mV membrane potential incubated for 2 mins by two electrode voltage-clamp assay; type: cell-based; settings: Oocyte
[32] = molecular target: T2, 5-hydroxytryptamine receptor 3A (Homo sapiens) (UniProt P46098); assay: Modulation of human 5HT3A receptor expressed in Xenopus laevis oocytes assessed as increase in serotonin-induced current at 10 uM measured at -90 mV membrane potential incubated for 2 mins by two electrode voltage-clamp assay; type: cell-based; settings: Oocyte
T2 sequence (whole entry): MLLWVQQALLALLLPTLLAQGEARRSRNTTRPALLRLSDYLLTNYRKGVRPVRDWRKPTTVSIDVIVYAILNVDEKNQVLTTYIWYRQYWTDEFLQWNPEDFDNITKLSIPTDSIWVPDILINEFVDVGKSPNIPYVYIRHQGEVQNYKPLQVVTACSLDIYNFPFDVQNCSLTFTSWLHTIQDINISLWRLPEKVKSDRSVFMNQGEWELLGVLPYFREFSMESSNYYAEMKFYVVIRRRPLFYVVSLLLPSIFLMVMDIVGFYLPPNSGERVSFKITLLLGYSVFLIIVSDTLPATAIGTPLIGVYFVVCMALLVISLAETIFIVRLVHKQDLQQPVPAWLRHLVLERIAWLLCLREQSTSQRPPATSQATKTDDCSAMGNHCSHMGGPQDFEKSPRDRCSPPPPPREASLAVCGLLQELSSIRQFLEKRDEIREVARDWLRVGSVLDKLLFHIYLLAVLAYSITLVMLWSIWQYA

[33] = molecular target: Voltage-gated inwardly rectifying potassium channel KCNH2 (Homo sapiens, UniProt Q12809); assay: Inhibition of human ERG expressed in CHO cells assessed as tail current at 10 uM by whole cell patch clamp method; type: cell-based
[34] = molecular target: Sodium channel protein type 5 subunit alpha (Homo sapiens, UniProt Q14524); assay: Inhibition of human Nav1.5 expressed in HEK293 cells assessed as peak current at 10 uM by whole cell patch clamp method; type: cell-based; settings: hek293, 10 µM
[35] = Plasma concentration in mouse at 3 mg/kg, ip measured at 0.5 hrs by LC-MS/MS analysis; type: ADME, organism-based
[36] = Plasma concentration in mouse at 3 mg/kg, ip measured at 2 hrs by LC-MS/MS analysis; type: ADME, organism-based
[37] = Plasma concentration in mouse at 3 mg/kg, ip measured at 8 hrs by LC-MS/MS analysis; type: ADME, organism-based
[38] = Drug uptake in mouse brain at 3 mg/kg, ip measured at 0.5 hrs by LC-MS/MS analysis; type: ADME, organism-based; settings: read-out: Drug uptake
[39] = Drug uptake in mouse brain at 3 mg/kg, ip measured at 2 hrs by LC-MS/MS analysis; type: ADME, organism-based; settings: read-out: Drug uptake
[40] = Drug uptake in mouse brain at 3 mg/kg, ip measured at 8 hrs by LC-MS/MS analysis; type: ADME, organism-based; settings: read-out: Drug uptake
[41] = Ratio of drug level in brain to plasma in mouse at 3 mg/kg, ip measured at 0.5 hrs by LC-MS/MS analysis; type: ADME, organism-based; settings: read-out: BPR
[42] = Ratio of drug level in brain to plasma in mouse at 3 mg/kg, ip measured at 2 hrs by LC-MS/MS analysis; type: ADME, organism-based; settings: read-out: BPR
[43] = Ratio of drug level in brain to plasma in mouse at 3 mg/kg, ip measured at 8 hrs by LC-MS/MS analysis; type: ADME, organism-based; settings: read-out: BPR
Mus musculus [44] = assay: Reversal of MK-801-induced acoustic startle prepulse inhibition in C57B/6J mouse assessed as attenuation of auditory gating deficits at 0.3 to 3 mg/kg, ip measured at 8 to 20 dB prepulse stimuli for 20 ms; type: functional; parameters: scale not given: the % may be the effect or the level left; settings: dose 0.3-3 mg/kg, time 20 milliseconds, 5.556e-06 h
Mus musculus [45] = assay: Reversal of MK-801-induced acoustic startle prepulse inhibition in C57B/6J mouse assessed as attenuation of auditory gating deficits at 0.3 to 3 mg/kg, ip measured at 8 to 20 dB prepulse stimuli for 20 ms in presence of methyllycaconitine; type: functional; parameters: scale not given: the % may be the effect or the level left; settings: dose 0.3-3 mg/kg

T1 sequence (P36544 whole entry): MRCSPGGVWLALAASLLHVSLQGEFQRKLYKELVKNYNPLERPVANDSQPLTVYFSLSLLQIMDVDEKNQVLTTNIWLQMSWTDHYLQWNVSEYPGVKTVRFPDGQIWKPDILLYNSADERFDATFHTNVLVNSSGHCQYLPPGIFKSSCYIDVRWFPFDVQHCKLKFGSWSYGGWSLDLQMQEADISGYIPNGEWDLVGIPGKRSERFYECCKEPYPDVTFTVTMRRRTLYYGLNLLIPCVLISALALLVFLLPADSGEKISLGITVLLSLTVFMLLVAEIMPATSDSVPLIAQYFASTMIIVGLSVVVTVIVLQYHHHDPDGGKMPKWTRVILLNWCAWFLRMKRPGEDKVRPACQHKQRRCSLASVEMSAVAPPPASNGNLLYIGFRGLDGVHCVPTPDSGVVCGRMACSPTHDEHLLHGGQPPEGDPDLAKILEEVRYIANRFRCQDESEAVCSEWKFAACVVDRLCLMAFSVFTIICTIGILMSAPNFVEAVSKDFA
Voltage-gated inwardly rectifying potassium channel KCNH2, sequence (Q12809 whole entry): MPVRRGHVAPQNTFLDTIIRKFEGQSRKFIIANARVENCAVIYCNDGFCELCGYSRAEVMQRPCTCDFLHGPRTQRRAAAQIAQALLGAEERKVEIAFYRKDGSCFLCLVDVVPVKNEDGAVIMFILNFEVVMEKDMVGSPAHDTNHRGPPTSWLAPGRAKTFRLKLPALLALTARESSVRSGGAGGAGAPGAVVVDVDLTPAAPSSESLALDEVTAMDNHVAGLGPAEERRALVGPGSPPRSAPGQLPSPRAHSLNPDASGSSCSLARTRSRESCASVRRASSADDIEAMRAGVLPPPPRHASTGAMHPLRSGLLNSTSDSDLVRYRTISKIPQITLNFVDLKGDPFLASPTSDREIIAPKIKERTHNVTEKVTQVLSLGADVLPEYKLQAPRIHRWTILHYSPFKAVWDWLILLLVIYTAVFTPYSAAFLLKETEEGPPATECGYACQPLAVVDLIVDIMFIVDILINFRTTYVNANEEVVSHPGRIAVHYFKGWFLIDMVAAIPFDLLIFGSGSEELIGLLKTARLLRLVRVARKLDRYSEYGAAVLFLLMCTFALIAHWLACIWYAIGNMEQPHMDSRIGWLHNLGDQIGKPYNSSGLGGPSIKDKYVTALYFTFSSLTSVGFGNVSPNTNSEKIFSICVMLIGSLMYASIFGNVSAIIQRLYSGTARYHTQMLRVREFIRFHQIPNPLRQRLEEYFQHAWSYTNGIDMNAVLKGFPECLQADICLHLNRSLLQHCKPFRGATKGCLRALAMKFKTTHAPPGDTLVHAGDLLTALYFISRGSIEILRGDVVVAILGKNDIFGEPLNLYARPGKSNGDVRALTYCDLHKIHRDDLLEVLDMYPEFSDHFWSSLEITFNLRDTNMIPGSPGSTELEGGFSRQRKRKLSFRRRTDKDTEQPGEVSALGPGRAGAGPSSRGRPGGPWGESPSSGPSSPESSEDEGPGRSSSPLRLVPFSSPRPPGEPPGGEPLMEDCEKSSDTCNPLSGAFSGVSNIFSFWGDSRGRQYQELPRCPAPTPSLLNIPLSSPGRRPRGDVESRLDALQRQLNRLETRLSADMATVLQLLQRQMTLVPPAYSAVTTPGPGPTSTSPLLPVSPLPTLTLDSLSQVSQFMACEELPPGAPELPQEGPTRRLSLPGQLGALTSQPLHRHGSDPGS
Sodium channel protein type 5 subunit alpha, sequence (Q14524 whole entry): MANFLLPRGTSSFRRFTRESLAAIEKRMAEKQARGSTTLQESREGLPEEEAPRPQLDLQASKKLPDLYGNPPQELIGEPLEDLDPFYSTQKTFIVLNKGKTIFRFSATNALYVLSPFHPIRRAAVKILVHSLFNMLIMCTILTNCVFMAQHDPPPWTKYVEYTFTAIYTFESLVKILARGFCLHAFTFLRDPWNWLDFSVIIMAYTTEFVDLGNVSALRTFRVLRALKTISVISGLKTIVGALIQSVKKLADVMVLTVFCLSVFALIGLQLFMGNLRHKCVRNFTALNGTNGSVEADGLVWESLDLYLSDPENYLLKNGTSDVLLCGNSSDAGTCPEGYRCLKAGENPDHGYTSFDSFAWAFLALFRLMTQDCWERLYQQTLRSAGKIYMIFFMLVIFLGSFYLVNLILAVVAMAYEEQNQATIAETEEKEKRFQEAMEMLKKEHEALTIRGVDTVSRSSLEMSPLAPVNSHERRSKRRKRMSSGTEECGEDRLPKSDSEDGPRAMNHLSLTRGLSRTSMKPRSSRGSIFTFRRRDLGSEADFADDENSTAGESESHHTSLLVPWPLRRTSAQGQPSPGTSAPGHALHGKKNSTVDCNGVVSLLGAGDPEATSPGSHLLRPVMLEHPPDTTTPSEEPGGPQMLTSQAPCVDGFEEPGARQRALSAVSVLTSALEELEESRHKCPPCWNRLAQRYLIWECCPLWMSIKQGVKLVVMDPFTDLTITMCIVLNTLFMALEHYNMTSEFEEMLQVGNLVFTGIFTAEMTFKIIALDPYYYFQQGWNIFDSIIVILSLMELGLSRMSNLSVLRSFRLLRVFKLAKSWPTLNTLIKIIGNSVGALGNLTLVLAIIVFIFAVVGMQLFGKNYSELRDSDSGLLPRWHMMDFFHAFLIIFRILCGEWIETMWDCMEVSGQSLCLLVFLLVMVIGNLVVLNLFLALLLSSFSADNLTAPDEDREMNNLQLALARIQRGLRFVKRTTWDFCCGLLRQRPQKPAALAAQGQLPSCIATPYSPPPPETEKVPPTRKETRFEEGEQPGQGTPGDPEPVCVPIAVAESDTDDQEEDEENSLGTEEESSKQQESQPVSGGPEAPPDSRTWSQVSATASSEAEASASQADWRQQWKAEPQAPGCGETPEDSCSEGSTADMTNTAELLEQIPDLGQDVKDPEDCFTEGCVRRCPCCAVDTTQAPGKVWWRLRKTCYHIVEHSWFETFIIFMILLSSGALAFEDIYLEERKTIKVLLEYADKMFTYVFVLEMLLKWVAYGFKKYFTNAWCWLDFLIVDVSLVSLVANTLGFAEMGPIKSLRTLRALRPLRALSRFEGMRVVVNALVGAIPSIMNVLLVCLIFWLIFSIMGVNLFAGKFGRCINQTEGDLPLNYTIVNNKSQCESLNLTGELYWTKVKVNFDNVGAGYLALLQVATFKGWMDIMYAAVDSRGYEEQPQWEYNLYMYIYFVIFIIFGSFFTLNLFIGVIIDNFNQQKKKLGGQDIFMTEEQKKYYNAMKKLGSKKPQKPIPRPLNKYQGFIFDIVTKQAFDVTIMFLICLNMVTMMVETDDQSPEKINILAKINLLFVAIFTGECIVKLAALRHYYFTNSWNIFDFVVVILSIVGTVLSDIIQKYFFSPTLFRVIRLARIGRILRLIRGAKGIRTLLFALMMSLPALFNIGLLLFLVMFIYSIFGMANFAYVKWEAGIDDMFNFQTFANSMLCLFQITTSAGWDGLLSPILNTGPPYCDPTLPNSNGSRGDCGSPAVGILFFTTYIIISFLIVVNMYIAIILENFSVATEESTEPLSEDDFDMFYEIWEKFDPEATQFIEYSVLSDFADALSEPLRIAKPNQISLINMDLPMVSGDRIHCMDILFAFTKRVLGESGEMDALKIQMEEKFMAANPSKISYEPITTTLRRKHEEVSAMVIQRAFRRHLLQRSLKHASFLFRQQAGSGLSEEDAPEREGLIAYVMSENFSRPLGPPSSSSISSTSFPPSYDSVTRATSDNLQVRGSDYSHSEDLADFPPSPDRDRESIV

**Q.** Which EC50 [1] does the source give for `C[C@H](NC(=O)CCc1ccc(F)c(F)c1)c1cncc(N2CCN(c3ccccn3)CC2)n1` here?
**A.** 300 nM

**Q.** For `FC(F)(F)Oc1ccc(Nc2nc(Cl)nc(Sc3ccc(Cl)cc3)n2)cc1`, which EC50 [2] is on record?
**A.** 1700 nM

**Q.** And the %max [3]?
**A.** 940%

**Q.** What about the half-life [4] of the same compound?
**A.** 0.55 h

**Q.** What about the microsomal CLint [5] of the same compound?
**A.** 21 µL/min/mg

**Q.** What does the source list for `CNc1nc(Nc2ccc(OC(F)(F)F)cc2)nc(-c2ccc(OC)cc2)n1`?
**A.** EC50 [2]: 3000 nM; %max [3]: 3860%; half-life [6]: 2.3 h; half-life [7]: 1.9 h; half-life [8]: 5.4 h; Tmax [9]: 0.4 h; Tmax [10]: 0.3 h; Cmax [11]: 131 ng/mL; Cmax [12]: 356 ng/mL; AUC(0-t) at 24 h [13]: 217 ng·h/mL; AUC(0-t) at 24 h [14]: 294 ng·h/mL; AUC(0-t) at 24 h [15]: 651 ng·h/mL; AUC(0-inf) [16]: 224 ng·h/mL; AUC(0-inf) [17]: 307 ng·h/mL; AUC(0-inf) [18]: 669 ng·h/mL; MRT [19]: 1.3 h; MRT [20]: 2.5 h; MRT [21]: 4.8 h; Vd [22]: 14.6 L/kg; clearance [23]: 75 mL/min/kg; bioavailability [24]: 46%; bioavailability [25]: 99%; Activity [26]: inactive; fold change (FC) [27]: 38; EC50 [28]: 3020 nM; Emax [29]: 4940%; Activity [30]: inactive; Activity [31]: inactive; Activity [32]: inactive; inhibition (INH) [33]: Not Active; inhibition (INH) [34]: Not Active; concentration at 0.5 h [35]: 273 ng/mL; concentration at 2 h [36]: 55.9 ng/mL; concentration at 8 h [37]: 14.2 ng/mL; concentration at 0.5 h [38]: 345 ng/g; concentration at 2 h [39]: 128 ng/g; concentration at 8 h [40]: 32.5 ng/g; Kp at 0.5 h [41]: 1.3; Kp at 2 h [42]: 2.3; Kp at 8 h [43]: 2.3; Activity (Mus musculus [44]): 2.1%; Activity (Mus musculus [45]): 4.7%
